Test results: patent publication US11129801B2 (SigmaThera SAS, priority 2016, dated 2021)

System: rat motor neurons (Islet 1/2 positive neurons)
Assay: Survival of primary motor neurons injured by glutamate
Type: cell-based
Details: glutamate 40 μM, 20 min
Experimental: Rat motor neurons were cultured as described (Camu et al. (1994) Journal of the neurological sciences 124 Suppl: 73-74). Briefly, pregnant female rats of 14 days gestation were killed by cervical dislocation (Rats Wistar; Janvier Lab) and the foetuses were removed from the uterus. The spinal cord were removed and placed in ice-cold PBS. Tissue segments were spun down, incubated in 0.025% (w/v) of trypsin-EDTA (Panbiotech, Ref: P10-023100) for 10 min at 37° C. Fragments were transferred in 1 mL of complete Leibovitz medium containing BSA (0.4%, Dustcher, Ref: P06-1391100) and DNasel grade II (0.1 mg/ml, Panbiotech, ref: P60-37780100). Cells were then dissociated by several rounds of trituration, centrifuged for 5 min at 470 g on a 4% BSA cushion and re-suspended in 2 mL of supplemented L15 medium. Motor neurons were counted in a Neubauer cytometer using the trypan blue exclusion test. Cells were cultured at a density of 1.5×10^4 cells/well of a 96 wells plate on astrocyte monolayer in Neurobasal (Invitrogen, ref: 21103) containing 1% of B27 (Invitrogen, ref: 17504), 2 mM L-Glutamine (Panbiotech, ref: P04-80100), 1% of PS solution, […] 2-mercaptoethanol (Invitrogen, ref: 31350-010), 2% Horse serum (Invitrogen, Ref: 16050-122), 1 ng/ml of Brain-derived neurotrophic factor (BDNF, PanBiotech, Ref: CB-1115002) and 1 ng/ml of Glial derived neurotrophic factor (GDNF, Dustcher, Ref: CB-1116001) at 37° C. in a humidified air (95%)/CO2 (5%) atmosphere.
Briefly, after 10 days of culture, medium was removed and 100 μL of fresh medium (supplemented Neurobasal without neurotrophic factor) without or with test compound was added 1 h before glutamate intoxication. Then, Glutamate at 40 μM in absence or presence of test compound will be added in the culture medium and incubated 20 min. The cells were rinsed with incubation solution (3 wash-outs) and let in the neurobasal medium containing compounds or control medium for 24 h.
[…]_Control medium stimulated with vehicle medium […]
The data were expressed as mean±s.e.m (of 6 data per condition, 1 culture). […]

Row | Molecule | protective effect on motor neuron survival (0.1 μM, 0.3 μM, 1 μM, 3 μM and 10 μM) | Islet 1/2 positive neurons (10 μM) | Islet 1/2 positive neurons (50 ng/mL)
1 | CCC(C/C=C/c1ccccc1)(c1ccccc1)N(C)CC1CC1 (single isomer, unassigned; (+)) [igmesine, (+)-(E)-N-(cyclopropylmethyl)-N-methyl-3,6-diphenylhex-5-en-3-amine] | significant protective effect | 126 % of the control | 
2 | BDNF: Brain-derived neurotrophic factor, used as a reference compound (protein, UniProt P23560 19-247, looked up) Neurotrophic factor BDNF …: APMKEANIRGQGGLAYPGVRTHGTLESVNGPKAGSRGLTSLADTFEHVIEELLDEDQKVRPNEENNKDADLYTSRVMLSSQVPLEPPLLFLLEEYKNYLDAANMSMRVRRHSDPARRGELSVCDSISEWVTAADKKTAVDMSGGTVTVLEKVPVSKGQLKQYFYETKCNPMGYTKEGCRGIDKRHWNSQCRTTQSYVRALTMDSKKRIGWRFIRIDTSCVCTLTIKRGR |  |  | 96.43 % of the control
